In ChEMBL document CHEMBL4342421, “Current scenario of tetrazole hybrids for antibacterial activity” (Eur J Med Chem, 2019):

Assays:
Format in all cases: functional
[1] = tested on: Streptococcus agalactiae; assay: Antimicrobial activity against Streptococcus agalactiae 55118 assessed as zone of inhibition at 100 ug/ml after 24 hrs by disc diffusion method; settings: Streptococcus agalactiae, 55118, 24 h; read-out: IZ
[2] = tested on: Staphylococcus aureus; assay: Antimicrobial activity against Staphylococcus aureus ATCC 25923 assessed as zone of inhibition at 100 ug/ml after 24 hrs by disc diffusion method; settings: ATCC 25923, 24 h, read-out: IZ
[3] = tested on: Klebsiella pneumoniae; assay: Antimicrobial activity against Klebsiella pneumoniae ATCC 700603 assessed as zone of inhibition at 100 ug/ml after 24 hrs by disc diffusion method; settings: ATCC 700603, 24 h, read-out: IZ
[4] = tested on: Staphylococcus aureus; assay: Antimicrobial activity against Staphylococcus aureus assessed as zone of inhibition at 250 ug/ml; settings: read-out: IZ
[5] = tested on: Bacillus cereus; assay: Antimicrobial activity against Bacillus cereus assessed as zone of inhibition at 250 ug/ml; settings: read-out: IZ
[6] = tested on: Candida albicans; assay: Antifungal activity against Candida albicans
[7] = tested on: Bacillus cereus; assay: Antimicrobial activity against Bacillus cereus
[8] = tested on: Pseudomonas aeruginosa; assay: Antimicrobial activity against Pseudomonas aeruginosa
[9] = tested on: Aspergillus niger; assay: Antifungal activity against Aspergillus niger
[10] = tested on: Pseudomonas aeruginosa; assay: Antimicrobial activity against Pseudomonas aeruginosa assessed as zone of inhibition at 250 ug/ml; settings: read-out: IZ
[11] = tested on: Staphylococcus aureus; assay: Antimicrobial activity against Staphylococcus aureus
[12] = tested on: Escherichia coli; assay: Antimicrobial activity against Escherichia coli assessed as zone of inhibition at 250 ug/ml; settings: read-out: IZ
[13] = tested on: Aspergillus niger; assay: Antifungal activity against Aspergillus niger assessed as zone of inhibition at 250 ug/ml; settings: read-out: IZ
[14] = tested on: Candida albicans; assay: Antifungal activity against Candida albicans assessed as zone of inhibition at 250 ug/ml; settings: read-out: IZ
[15] = tested on: Escherichia coli; assay: Antimicrobial activity against Escherichia coli assessed as zone of inhibition at 250 ug/ml after 24 hrs by disk diffusion method; settings: read-out: IZ
[16] = tested on: Escherichia coli; assay: Antimicrobial activity against Escherichia coli
[17] = tested on: Aspergillus flavus; assay: Antifungal activity against Aspergillus flavus
[18] = tested on: Fusarium oxysporum; assay: Antifungal activity against Fusarium oxysporum
[19] = tested on: Pseudomonas aeruginosa; assay: Antimicrobial activity against Pseudomonas aeruginosa ATCC 27853 after 24 hrs by two-fold broth serial dilution method; settings: ATCC 27853, 24 h
[20] = tested on: Staphylococcus aureus; assay: Antibacterial activity against methicillin resistant Staphylococcus aureus N315 after 24 hrs by two-fold broth serial dilution method; settings: N315, 24 h
[21] = tested on: Cyberlindnera jadinii; assay: Antifungal activity against Candida utilis after 24 hrs; settings: Williopsis jadinii
[22] = tested on: Escherichia coli; assay: Antimicrobial activity against Escherichia coli JM 109 after 24 hrs by two-fold broth serial dilution method; settings: JM 109, 24 h
[23] = tested on: Shigella dysenteriae; assay: Antimicrobial activity against Shigella dysenteriae after 24 hrs by two-fold broth serial dilution method
[24] = tested on: Candida albicans; assay: Antifungal activity against Candida albicans ATCC 76615 after 24 hrs; settings: ATCC 76615, 24 h
[25] = tested on: Saccharomyces cerevisiae; assay: Antifungal activity against Saccharomyces cerevisiae after 24 hrs
[26] = tested on: Aspergillus flavus; assay: Antifungal activity against Aspergillus flavus after 24 hrs
[27] = tested on: Pichia norvegensis; assay: Antifungal activity against Candida mycoderma after 24 hrs
[28] = tested on: Micrococcus luteus; assay: Antibacterial activity against Micrococcus luteus ATCC 4698 after 24 hrs by two-fold broth serial dilution method; settings: ATCC 4698, 24 h
[29] = tested on: Bacillus subtilis; assay: Antibacterial activity against Bacillus subtilis ATCC 21216 after 24 hrs by two-fold broth serial dilution method; settings: ATCC 21216, 24 h
[30] = tested on: Staphylococcus aureus; assay: Antimicrobial activity against Staphylococcus aureus assessed as zone of inhibition at 5 mg/ml; settings: read-out: IZ
[31] = tested on: Klebsiella pneumoniae; assay: Antimicrobial activity against Klebsiella pneumoniae assessed as zone of inhibition at 5 mg/ml; settings: read-out: IZ
[32] = tested on: Pseudomonas aeruginosa; assay: Antimicrobial activity against Pseudomonas aeruginosa assessed as zone of inhibition at 5 mg/ml; settings: read-out: IZ
[33] = tested on: Escherichia coli; assay: Antimicrobial activity against Escherichia coli assessed as zone of inhibition at 5 mg/ml; settings: read-out: IZ

COc1nc(N)nc(OC)c1Sc1nnnn1CC1CC1
10 to 24 mm: zone of inhibition at 100 µg/mL [1] | zone of inhibition at 100 µg/mL [2] | zone of inhibition at 100 µg/mL [3]

O=[N+]([O-])c1cccc(-c2nnnn2-c2nc3ccccc3s2)c1
16 to 26 mm: zone of inhibition at 250 µg/mL [4] | zone of inhibition at 250 µg/mL [5] | zone of inhibition at 250 µg/mL [10] | zone of inhibition at 250 µg/mL [12] | zone of inhibition at 250 µg/mL [13] | zone of inhibition at 250 µg/mL [14]
50 to 100 µg/mL: MIC [6] | MIC [7] | MIC [8] | MIC [9] | MIC [11] | MIC [16]
18 to 26 mm: zone of inhibition at 250 µg/mL [15]

CCCCCCn1nnnc1Sc1c(OC)nc(N)nc1OC
10 to 24 mm: zone of inhibition at 100 µg/mL [1] | zone of inhibition at 100 µg/mL [2] | zone of inhibition at 100 µg/mL [3]

COc1ccc(-n2cc(-c3nnn[nH]3)nn2)cc1
100 µg/mL: MIC [9] | MIC [17] | MIC [18]

Cc1cc(=O)oc2cc(OCC(O)Cn3nnnc3C)cc(OCC(O)Cn3nnnc3C)c12 (stereo not drawn)
32 to 512 µg/mL: MIC [19] | MIC [20] | MIC [21] | MIC [22] | MIC [23] | MIC [24] | MIC [25] | MIC [26] | MIC [27] | MIC [28] | MIC [29]

Cc1cc(=O)oc2cc(OCC(O)Cn3cnnn3)cc(OCC(O)Cn3cnnn3)c12 (stereo not drawn)
32 to 512 µg/mL: MIC [19] | MIC [20] | MIC [21] | MIC [22] | MIC [23] | MIC [24] | MIC [25] | MIC [26] | MIC [27] | MIC [28] | MIC [29]

Cc1nc2ccccc2cc1Cn1cc(CSc2nnnn2-c2ccccc2)nn1
11 to 19 mm: zone of inhibition at 5000 µg/mL [30] | zone of inhibition at 5000 µg/mL [31] | zone of inhibition at 5000 µg/mL [32] | zone of inhibition at 5000 µg/mL [33]
